{"source": "paper PMC4176947", "about": "(Journal of natural products, 2012)", "key": {"[1]": {"biological_target": "wild-type HIV-1 integrase (Human immunodeficiency virus type 1 group M subtype B, UniProt P04585)", "type": "biochemical", "conditions": "at 100 µg/mL"}, "[2]": {"test_system": "HIV-infected 1A2 cells (a subclone of CEM-SS TART cells)", "experiment": "Cytoprotective cell-based anti-HIV assay", "conditions": "at 78 µM"}, "[3]": {"test_system": "adipocyte differentiation", "conditions": "cited from earlier work"}, "[4]": {"conditions": "cited from earlier work"}, "HIV integrase": {"test_system": "HIV integrase", "conditions": "cited from earlier work"}}, "note": "Starred links: 1 amine or outer side, 2 acyl side, 3 side chain; linkers in the order of their positions; H or OH if unused. Non-standard residues stand in square brackets, D forms with d. Residues, ends and D or L forms follow the SMILES beside them. *: point of attachment. X1 = O=C([C@H]1CSC([C@@H](Cc2ccccc2)N[*:1])=N1)[*:2]; Allyl(1,1-Me2) = C=CC(C)(C)*", "data": [{"smiles": "C=CC(C)(C)O[C@H](C)[C@@H]1NC(=O)[C@H]2CSC(=N2)[C@@H](Cc2ccccc2)NC(=O)[C@@H]2CCCN2C(=O)[C@H](CO)NC(=O)[C@H](CC(C)C)NC1=O", "note": "[Compound 1, Mollamide E] (cyclo(LSP[X1]T(Allyl(1,1-Me2))))", "values": [{"measurement": "HIV-1 integrase inhibition at single concentration", "setting": "[1]", "result": "no activity"}, {"measurement": "HIV inhibition in cytoprotective assay at single concentration", "setting": "[2]", "result": "did not show any inhibition"}]}, {"smiles": "O=C(NCCc1ccccc1)NCCc1ccccc1C(=O)NCCc1ccccc1", "note": "[Compound 3, Molleurea A]", "values": [{"measurement": "HIV-1 integrase inhibition at single concentration", "setting": "[1]", "result": "no activity"}]}, {"smiles": "O=C(NCCc1ccccc1)NCCc1ccccc1", "note": "[N, N’-diphenethylurea]", "values": [{"measurement": "Promotion of adipocyte differentiation", "setting": "[3]", "result": "promote adipocyte differentiation"}, {"measurement": "Antidepressant action", "setting": "[4]", "result": "act as an antidepressant"}]}, {"smiles": "CC(C)C[C@@H]1NC(=O)[C@@H]2CCCN2C(=O)[C@H](C(C)C)NC(=O)c2csc(n2)CNC(=O)c2csc(n2)[C@H](CCC(N)=O)NC1=O", "note": "[dolastatin 3]", "values": [{"measurement": "HIV integrase inhibition activity", "setting": "HIV integrase", "result": "HIV integrase inhibition activity"}]}]}
